Reference: patent US8304238B2, “Cell culture medium and immobilized preparation of cell adhesion protein or peptide” (Nat'l Institute for Environmental Studies, priority 2003, dated 2012)
Where no end group is shown, it is not given here. [ ]: non-standard residue; d: D form. Nle = CCCC[C@H](N)C(=O)O

Experiments:
[1] = system: alveolar type II epithelial cells (T2 cells); assay: Adhesion of T2 cells to pseudomatrix adsorbed/immobilized from DMEM and competitive inhibition by free peptides; format: cell-based; conditions: for Competitive inhibition of cell adhesion to pseudomatrix by free cell adhesion peptide: pseudomatrix 1-10 μg/ml in DMEM; for Cell adhesion ability of immobilized pseudomatrix compared with directly coated FN: 1-10 μg/ml in DMEM, 1-day serum-free culture, excluding 1 μg/ml of MBAC-AG73
Experimental: 200 mg each of hydrophobic binding-adsorptive polymer, MBAC, MAST or MMAC were dispersed into water, and 1 N NaOH solution was added little by little to dissolve them completely. 50 mg of WSC (1-ethyl-3-(3-dimethylamino propyl)carbodiimide, hydrochloride) was added to the resulting solution, and the reaction was conducted for 2 hours. Subsequently, 20 mg of peptide was added, and the reaction was continued with stirring for 2 hours at room temperature. After the reaction was finished, the reactant was subjected to dialysis with water to remove alkaline and low molecules, and then freeze-dried to prepare a pseudomatrix of interest.
Each pseudomatrix prepared in Example 13 to which cell adhesion peptide was bound (MBAC-peptide) was diluted in DMEM medium to the concentration of 1-10 μg/ml, and the resultant solution was poured into a 96-well by 100 μl each, and left still overnight in a CO2 incubator to be adsorbed and immobilized on the wells. Non-adsorbed MBAC-peptides were removed by rinsing well with DMEM medium. Next, T2 cells suspended at the concentration of 6×10^5 cells/ml were seeded in the serum-free DMEM by 100 μl each. After 1-day serum-free culture, T2 cells were fixed with 100 μl of methanol for 5 minutes, and stained with 50 μl of 0.4% crystal violet for 30 minutes. Excessive staining was washed with water, and the number of adhering cells was counted based on the absorbance of cytoplasm (A595).
In the same manner as in Example 14, each pseudomatrix prepared in Example 13 to which cell adhesion peptide was bound (MAST-peptide) was adsorbed and immobilized on a 96-well, and T2 cells were seeded and cultured thereon.

[2] = system: alveolar type II epithelial cells (T2 cells); assay: Adhesion of T2 cells to pseudomatrices dissolved in 50% ethanol and air-dried/immobilized, and competitive inhibition by free peptide; format: cell-based; conditions: for Competitive inhibition of cell adhesion by free peptide: 50% ethanol air-dried pseudomatrix, 0.25 mg/ml free AG73 or FIB-1; for Adhesion of T2 cells to pseudomatrix compared with coated FN: 0.1-1.0 μg/well, 24 hours serum-free; for Free GRGDSP concentration at which cell adhesion was almost completely inhibited: free peptide 0.25-4.0 mg/ml tested
Experimental: 50 μl of 2-20 μg/ml MAST-GRGDSP (Gly-Arg-Gly-Asp-Ser-Pro) (SEQ ID NO: 22) and MMAC-GRGDSP (SEQ ID NO: 22) dissolved in 50% ethanol were poured into wells, and air-dried/immobilized. Next, the wells to which MAST-GRGDSP (SEQ ID NO: 22) and MMAC-GRGDSP (SEQ ID NO: 22) (0.1-1.0 μg/well) were coated were rinsed with the serum-free DMEM medium. T2 cells suspended in the medium at the concentration of 6×10^4 cells/100 μl were seeded, and cultured in a CO2 incubator at 37° C. for 24 hours. Then, the cells were fixed with methanol, stained, and measured its absorbance according to the method in Example 7. A culture wherein FN was coated as a standard material was conducted simultaneously. The cell adhesion on FN was shown as a standard (100%).
In the same manner as in Example 18, MAST-GRGDSP (SEQ ID NO: 22) was dissolved in 50% ethanol, air-dried/immobilized on wells, and T2 cells were seeded/cultured thereon. Separately, just before the cells were seeded, 0.25-4.0 mg/ml of free GRGDSP (SEQ ID NO: 22) peptide was added to the cell suspension, and the culture and the subsequent measurement of absorbance were conducted in the same manner as described above. […] Further, when the applied amount of MAST-GRGDSP (SEQ ID NO: 22) was decreased, the immobilized amount of GRGDSP (SEQ ID NO: 22) decreased, and the competitive inhibition by free GRGDSP (SEQ ID NO: 22) peptide worked more effectively.
(§1) In the same manner as in Example 18, MMAC-GRGDSP (SEQ ID NO: 22) was dissolved in 50% ethanol, air-dried/immobilized on wells, and T2 cells were seeded/cultured thereon. Separately, just before the cells were seeded, 0.25-4.0 mg/ml of free GRGDSP (SEQ ID NO: 22) peptide was added to the cell suspension, and the culture and the subsequent measurement of absorbance were conducted in the same manner as described above.
as §1, with “MBAC/MAST-AG73 and -FIB-1 were” for “MMAC-GRGDSP (SEQ ID NO: 22) was”, “0.25” for “0.25-4.0”, “AG73 or FIB-1” for “GRGDSP (SEQ ID NO: 22)”

Row | Substance | Competitive inhibition of cell adhesion to pseudomatrix by free cell adhesion peptide [1] | Cell adhesion ability of immobilized pseudomatrix compared with directly coated FN [1] | Adhesion of T2 cells to pseudomatrix compared with coated FN ([2]; 50% ethanol, air-dried) | further results
1 | MBAC-A3G72: pseudomatrix: MBAC polymer reacted with A3G72 peptide (KPRLQFSLDIQT) | competitively inhibited |  |  | 
2 | MAST-A4G82X: pseudomatrix: MAST polymer reacted with A4G82X peptide (TLFLAHGRLVF[Nle]; also: peptide reacted with MAST polymer (pseudomatrix)) | inhibited by free A4G82 peptide | the same level of cell adhesion ability as in the case where FN was directly coated |  | 
3 | MBAC-AG73: pseudomatrix: MBAC polymer reacted with AG73 peptide (RKRLQVQLSIRT) | competitively inhibited |  | similarly to the case where FN was coated | Competitive inhibition of cell adhesion by free peptide [2]: almost completely inhibited
4 | MMAC-GRGDSP: pseudomatrix: MMAC polymer bound to GRGDSP peptide (also: bound to MMAC polymer) |  |  | slightly lower than that of the standard cell adhesion protein FN | 
5 | Gly-Arg-Gly-Asp-Ser-Pro (GRGDSP) [reference compound] |  |  |  | Free GRGDSP concentration at which cell adhesion was almost completely inhibited ([2]; adhesion to MAST-GRGDSP): 4.0 mg/mL; Free GRGDSP concentration at which cell adhesion was almost completely inhibited ([2]; adhesion to MMAC-GRGDSP): 1.0 to 4.0 mg/mL
6 | MAST-A3G72: pseudomatrix: MAST polymer reacted with A3G72 peptide (KPRLQFSLDIQT) | competitively inhibited by the free cell adhesion peptide, the degree is lower than the case of MBAC-peptide | the same level of cell adhesion ability as in the case where FN was directly coated |  | 
7 | MAST-AG73: pseudomatrix: MAST polymer reacted with AG73 peptide (RKRLQVQLSIRT) | competitively inhibited by the free cell adhesion peptide, the degree is lower than the case of MBAC-peptide | the same level of cell adhesion ability as in the case where FN was directly coated | similarly to the case where FN was coated | Competitive inhibition of cell adhesion by free peptide [2]: almost completely inhibited
8 | MAST-GRGDSP: pseudomatrix: MAST polymer bound to GRGDSP peptide (also: bound to MAST polymer) |  |  | slightly lower than that of the standard cell adhesion protein FN | Amount of cell adhesion compared with the same peptide bound to MMAC ([2]; 50% ethanol, air-dried, polystyrene wells): larger amount of cell adhesion than that of the same peptide bound to MMAC polymer
